Assays:
dog liver microsomes = experiment: Incubation of F18 with dog liver microsomes, metabolite profiling; format: in vitro ADME, beagle dog; parameters: key: +: Metabolite detected; −: metabolite not detected; conditions: F18 50 μM, 1 h
Experimental: A stock solution of F18 (5 mM) was prepared in methanol. F18 (50 μM) was incubated with RLMs/DLMs/MLMs/HLMs and HLcy (0.5 mg protein/mL) in 50 mM Tris-HCl buffer containing 5 mM MgCl2 (pH 7.4) in a final volume of 200 μL. The final concentration of methanol in the incubation system was 1% (v/v). After 3 min of preincubation at 37°C, the reactions were initiated by the addition of NADPH-regenerating system (10-mM β-NADP, 100-mM 6-G-P and 10-U/mL 6-G-P-DH) or NADH. After incubation for 1 h, the reactions were terminated by the addition of two volumes of ice-cold acetonitrile. Samples without NADPH or NADH were included as controls. The incubation mixture was vortexed and centrifuged at 13,300 × g for 5 min. A 10 μL aliquot of the supernatant was injected into an LC-tandem mass spectrometer (LC-MS/MS) for analysis.
Metabolic profiling studies were performed with a Finnigan TSQ Quantum MS instrument with an electrospray ionization probe and a Finnigan SURVEYOR HPLC system (Thermo Finnigan, San Jose, CA, USA). HPLC was performed with a Zorbax SB-C18 column (2.1 × 100 mm, 3.5 μm, Agilent Corporation, CA, USA) with a column temperature of 35°C and a flow rate of 200 μL/min. F18 and its metabolites were eluted using a linear gradient method with a mobile phase consisting of solvent A (water with 0.1% formic acid) and solvent B (acetonitrile with 0.1% formic acid). […] The samples were analyzed in the positive-ionization mode, and the TSQ capillary temperature was set to 350°C. Nitrogen was used as both the sheath gas and the auxiliary gas and was delivered at 30 psi and 15 psi, respectively. The spray voltage and tube lens were set to 3,800 V and 123 V, respectively. The full-width half maximum (FWHM) was set to 0.7. MS data were acquired in the selective ion-recording mode or by collecting full scans from 200 to 600 m/z at 1 scan/s. The mass spectrometer and HPLC system were operated using Xcalibur 2.0.7 software.

recombinant FMO5 = molecular target: T1, recombinant FMO5 (Homo sapiens, UniProt P49326); experiment: Metabolism of F18 by cDNA-expressed FMO5; format: in vitro ADME; conditions: F18 10 μM, 50 pmol/mL enzyme, 1 h
T1 construct: purchased BD Gentest (Woburn, MA, USA)
T1 sequence (P49326 1-533): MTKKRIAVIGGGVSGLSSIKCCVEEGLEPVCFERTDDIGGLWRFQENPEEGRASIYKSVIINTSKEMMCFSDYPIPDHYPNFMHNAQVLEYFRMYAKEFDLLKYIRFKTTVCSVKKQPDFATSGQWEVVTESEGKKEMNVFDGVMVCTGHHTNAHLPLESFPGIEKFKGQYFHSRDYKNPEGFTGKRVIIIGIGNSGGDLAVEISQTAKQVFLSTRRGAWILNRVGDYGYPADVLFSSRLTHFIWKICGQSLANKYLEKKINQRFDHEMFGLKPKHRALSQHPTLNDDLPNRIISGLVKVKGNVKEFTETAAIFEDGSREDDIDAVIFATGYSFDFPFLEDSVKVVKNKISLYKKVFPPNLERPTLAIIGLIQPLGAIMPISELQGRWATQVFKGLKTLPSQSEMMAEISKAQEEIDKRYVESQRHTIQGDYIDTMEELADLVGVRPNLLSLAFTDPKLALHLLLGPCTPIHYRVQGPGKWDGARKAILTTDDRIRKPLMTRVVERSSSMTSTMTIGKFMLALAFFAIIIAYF
Experimental: To further verify the roles of CYPs and FMOs in the metabolism of F18 in humans, F18 (10 μM) was incubated individually with 14 cDNA-expressed human CYP isozymes (50-pmol/mL CYP1A1, CYP1A2, CYP2A6, CYP2B6, CYP2C8, CYP2C9, CYP2C19, CYP2D6, CYP2E1, CYP2J2, CYP3A4, CYP4F2, CYP4F3, and CYP4A11) and three cDNA-expressed FMO enzymes (50-pmol/mL FMO1, FMO3, and FMO5). The incubation conditions were similar to those used for HLMs (described above), with the exception of the incubating time […]. Samples incubated without NADPH were used as the negative control.

[1] = Pharmacokinetics in rats after oral administration of F18; format: in vivo, Sprague-Dawley rats; conditions: oral F18 50 mg/kg; for Cmax / Tmax / half-life / MRT last / MRT inf: Sprague-Dawley; for Cmax / Tmax / half-life / MRT last / MRT inf / AUC0−∞ / Systemic exposure relative to that of the parent drug: rat blood; for Cmax / Tmax / half-life / MRT last / MRT inf / AUC0−∞: mean ± SD, n = 5; for MRT last: read-out: MRT0−t; for MRT inf: read-out: MRT0−∞; for Systemic exposure relative to that of the parent drug: from AUC0−∞
Experimental: To investigate the pharmacokinetic characteristics of F18 and its major metabolites, five rats were intragastrically administered F18 at a dose of 50 mg/kg. Blood samples were collected in heparinized ice-bath tubes from the suborbital veniplex at 0, 0.25, 0.5, 1, 2, 4, 6, 8, 12, 16, and 24 h postdose. The blood concentrations of F18 and its major metabolites were determined by LC-MS/MS and their pharmacokinetic parameters were calculated through non-compartmental analysis using WinNonlin Version 6.1 (Pharsight, Mountain View, CA, USA).
For the blood samples, F18, M1, M3-1, and M3-2 were simultaneously quantified using the following elution gradient: Solvent B was maintained at 15% for 2 min, increased to 85% in 1 min, maintained at 85% for 5 min, decreased to 15% in 0.5 min and maintained at 15% for 4.5 min. Detection was also performed using a Finnigan TSQ Quantum MS instrument with an electrospray ionization probe operated in the positive mode.
Calibration curves for F18 and its metabolites were fitted via linearly weighted (1/x^2) least-squares regression. The correlation coefficient values of F18 and its metabolites in the incubations were >0.99 for the range 10–5,000 nM; the LOQ was 10 nM with a signal-to-noise ratio >10:1; the accuracies were 90–113% and the precisions (RSD) were <10.5%. In the blood samples, the correlation coefficient values for F18, M1, M3-1, and M3-2 were >0.99 for the range 5–2,000 nM; the LOQ was 5 nM with the signal-to-noise ratio >10:1; the accuracies were 91–112% and the precisions (RSD) were <9.6%. In addition, no interference was found in the retention time of each analyte in both the incubated samples and the blood samples.

Structure (SMILES): CCCc1cc(=O)oc2c3c(c4c(c12)OC(C)(C)C=C4)O[C@H](CCl)C[C@H]3O (relative stereo) [Metabolite M3-1, trans-12-hydroxy F18]
- F18 metabolite detected in DLM (dog liver microsomes): +
- Metabolite detected in incubation with recombinant FMO5 (recombinant FMO5): detected
- Cmax [1]: 165 ± 50.9 nM
- Tmax [1]: 4 ± 2.3 h
- half-life [1]: 3.4 ± 0.64 h
- MRT last [1]: 8.6 ± 0.6 h
- MRT inf [1]: 8.9 ± 0.7 h
- Concentration in rat blood (in words) [1]: detected in high concentrations
- AUC0−∞ [1]: 1,965 h^*nM
- Systemic exposure relative to that of the parent drug [1]: ~38%

Structure (SMILES): CCCc1cc(=O)oc2c3c(c4c(c12)OC(C)(C)C=C4)O[C@H](CCl)C[C@@H]3O (relative stereo) [Metabolite M3-2, cis-12-hydroxy F18]
- F18 metabolite detected in DLM (dog liver microsomes): +
- Metabolite detected in incubation with recombinant FMO5 (recombinant FMO5): detected
- Cmax [1]: 219 ± 51.2 nM
- Tmax [1]: 4 ± 2.3 h
- half-life [1]: 3 ± 0.4 h
- MRT last [1]: 8.8 ± 1.2 h
- MRT inf [1]: 13.2 ± 7.2 h
- Concentration in rat blood (in words) [1]: detected in high concentrations
- AUC0−∞ [1]: 3,353 h^*nM
- Systemic exposure relative to that of the parent drug [1]: ~65%

Structure (SMILES): CCCc1cc(=O)oc2c3c(c4c(c12)OC(C)(C)C=C4)OC(CO)CC3=O (centres unmarked) [Metabolite M1]
- F18 metabolite detected in DLM (dog liver microsomes): +
- Metabolite detected in incubation with recombinant FMO5 (recombinant FMO5): not detected
- Cmax [1]: 274 ± 111 nM
- Tmax [1]: 4 ± 1.6 h
- half-life [1]: 4.8 ± 2.1 h
- MRT last [1]: 8.4 ± 0.5 h
- MRT inf [1]: 9.4 ± 1.5 h
- Concentration in rat blood (in words) [1]: detected in high concentrations
- AUC0−∞ [1]: 3,290 h^*nM
